Patent US9550782B2, “Compounds and methods for treating diabetes” (Medivation Technologies, Inc., priority 2011, dated 2017)
Several values for one entry are separate records, joined by “and”; a condition that tells them apart may be missing. Equal values may be shown once. Read-outs that look alike come from different tables or passages of the source. Values belong to the compound of their own block, whether it stands above or below them.

Tests used:
[1] = molecular target: T1, human recombinant adrenergic α2A receptor (Homo sapiens, UniProt P08913); assay: Radioligand binding, adrenergic α2A ([3H]MK-912)
T1 construct: expressed in transfected cells; host or cells: insect Sf9 cells
T1 sequence (P08913 1-465): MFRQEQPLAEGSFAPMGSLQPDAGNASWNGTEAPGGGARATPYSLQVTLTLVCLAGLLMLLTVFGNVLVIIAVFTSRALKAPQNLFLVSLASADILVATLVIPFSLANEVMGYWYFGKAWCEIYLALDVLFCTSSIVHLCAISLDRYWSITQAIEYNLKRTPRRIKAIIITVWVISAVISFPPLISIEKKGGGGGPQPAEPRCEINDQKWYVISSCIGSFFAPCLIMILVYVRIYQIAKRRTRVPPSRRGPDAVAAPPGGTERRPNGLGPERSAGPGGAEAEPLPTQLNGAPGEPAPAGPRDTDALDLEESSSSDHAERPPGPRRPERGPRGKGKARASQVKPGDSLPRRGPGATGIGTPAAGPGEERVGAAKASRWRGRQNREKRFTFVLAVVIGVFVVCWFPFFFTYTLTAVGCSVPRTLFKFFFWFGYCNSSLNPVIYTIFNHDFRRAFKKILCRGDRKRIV
Method: To evaluate in radioligand binding assays the activity of compounds of the invention, human recombinant adrenergic α2A receptor expressed in insect Sf9 cells (Uhlen, S. et al, J. Pharmacol. Exp. Ther. 271:1558, 1994) in a modified Tris-HCl buffer (50 mM Tris-HCl, pH 7.4, 12.5 mM MgCl2, 2 mM EDTA) was used. Compounds of invention were incubated with 1 nM [^3H]MK-912 for 60 min at 25° C. MK912 is (2S-trans)-1,3,4,5′,6,6′,7,12b-octahydro-1′,3′-dimethyl-spiro[2H-benzofuro[2,3-a]quinolizine-2,4′(1′H)-pyrimidin]-2′(3′H)-one hydrochloride. Non-specific binding was estimated in the presence of 10 μM WB-4101 (2-(2,6-Dimethoxyphenoxyethyl)aminomethyl-1,4-benzodioxane hydrochloride). Receptor proteins were filtered and washed, the filters were then counted to determine [^3H]MK-912 specifically bound. […] Compounds of the invention were tested in this biochemical assay and percent inhibition of specific binding was determined. Biochemical assay results are presented as the percent inhibition of specific binding in Table B1.

[2] = molecular target: T2, human recombinant adrenergic α2B receptor (Homo sapiens, UniProt P18089); assay: Radioligand binding, adrenergic α2B ([3H]Rauwolscine); conditions: for Percentage inhibition of ligand binding, Adrenergic α2B (0.03 μM): repeat datapoints each shown; for inhibition at 0.03 µM: read-out: Percentage inhibition of ligand binding, Adrenergic α2B (0.03 μM), compound at 0.03 μM, repeat datapoints each shown
T2 construct: expressed in transfected cells; host or cells: CHO-K1
T2 sequence (P18089 1-450): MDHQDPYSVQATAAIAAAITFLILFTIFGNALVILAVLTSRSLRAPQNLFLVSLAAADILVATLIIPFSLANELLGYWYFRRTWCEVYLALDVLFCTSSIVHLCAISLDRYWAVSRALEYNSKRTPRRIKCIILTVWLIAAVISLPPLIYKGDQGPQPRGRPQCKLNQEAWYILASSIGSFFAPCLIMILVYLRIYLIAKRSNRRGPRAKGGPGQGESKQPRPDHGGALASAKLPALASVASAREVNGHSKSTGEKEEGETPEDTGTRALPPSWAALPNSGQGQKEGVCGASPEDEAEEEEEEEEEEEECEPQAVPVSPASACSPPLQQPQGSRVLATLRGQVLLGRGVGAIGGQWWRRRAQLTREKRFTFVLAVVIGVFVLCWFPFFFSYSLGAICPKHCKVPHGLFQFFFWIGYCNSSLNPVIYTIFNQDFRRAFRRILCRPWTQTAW
Method: To evaluate in radioligand binding assays the activity of compounds of the invention, human recombinant adrenergic α2B receptor expressed in Chinese hamster ovary (CHO) K1 cells (Uhlen, S. et al, Eur. J. Pharmacol. 343(1):93, 1998) in a modified Tris-HCl buffer (50 mM Tris-HCl, pH 7.4, 12.5 mM MgCl2, 1 mM EDTA, 0.2% BSA) was used. Compounds of the invention were incubated with 2.5 nM [3H]Rauwolscine for 60 min at 25° C. Non-specific binding was estimated in the presence of 10 μM Prazosin. Receptor proteins were filtered and washed, the filters were then counted to determine [3H]Rauwolscine specifically bound. […] Compounds of the invention were tested in this biochemical assay and percent inhibition of specific binding was determined. Biochemical assay results are presented as the percent inhibition of specific binding in Table B1.

[3] = molecular target: T3, rat adrenergic α1B receptor (Rattus norvegicus, UniProt P15823); assay: Radioligand binding, adrenergic α1B ([3H]Prazosin); set-up: species or system Wistar Rat; conditions: for Percentage inhibition of ligand binding, Adrenergic α1B (0.1 μM) / Percentage inhibition of ligand binding, Adrenergic α1B: compound at 0.1 μM; for Percentage inhibition of ligand binding, Adrenergic α1B (0.1 μM): repeat datapoints each shown
T3 construct: rat adrenergic α1B receptor obtained from Wistar Rat liver; from tissue; host or cells: Wistar rat liver
T3 sequence (P15823 1-515): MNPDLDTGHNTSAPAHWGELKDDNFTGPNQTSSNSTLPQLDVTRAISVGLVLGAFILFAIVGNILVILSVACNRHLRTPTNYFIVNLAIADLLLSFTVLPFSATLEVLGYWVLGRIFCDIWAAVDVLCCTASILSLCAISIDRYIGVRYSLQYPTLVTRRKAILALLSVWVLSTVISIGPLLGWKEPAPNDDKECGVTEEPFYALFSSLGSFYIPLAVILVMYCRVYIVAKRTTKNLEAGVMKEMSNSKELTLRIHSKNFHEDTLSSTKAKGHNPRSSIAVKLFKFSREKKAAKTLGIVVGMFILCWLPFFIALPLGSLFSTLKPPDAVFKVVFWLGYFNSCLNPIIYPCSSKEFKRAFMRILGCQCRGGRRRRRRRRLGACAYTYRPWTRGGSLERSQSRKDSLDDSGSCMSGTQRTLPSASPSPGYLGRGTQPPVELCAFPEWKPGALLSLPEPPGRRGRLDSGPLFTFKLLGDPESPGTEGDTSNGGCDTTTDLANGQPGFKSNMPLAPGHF
Method: To evaluate in radioligand binding assays the activity of compounds of the invention, rat adrenergic α1B receptor obtained from Wistar Rat liver (Garcia-S'ainz, J. et al, Biochem. Biophys. Res. Commun. 186:760, 1992; Michel, A. et al, Br. J. Pharmacol. 98:883, 1989) in a modified Tris-HCl buffer (50 mM Tris-HCl buffer, pH 7.4, 0.5 mM EDTA) was used. Compounds of the invention were incubated with 0.25 nM [^3H]Prazosin for 60 min at 25° C. Non-specific binding was estimated in the presence of 10 μM phentolamine. Receptor proteins were filtered and washed, the filters were then counted to determine [^3H]Prazosin specifically bound. […] Compounds of the invention were tested in this biochemical assay and percent inhibition of specific binding was determined. Biochemical assay results are presented as the percent inhibition of specific binding in Table B1.

[4] = read-out: Percentage inhibition of ligand binding, Adrenergic α2A (0.1 μM), compound at 0.1 μM, [3H]MK-912, repeat datapoints each shown
[5] = 0.1 μM compound, [3H]MK-912, 0.1 µM
[6] = compound at 0.1 μM, [3H]MK-912, 0.1 µM

Percentage inhibition of ligand binding, Adrenergic α2B ([2]; 0.03 μM compound): 43% | Percentage inhibition of ligand binding, Adrenergic α2B ([2]; 0.1 μM compound): 74%
Compound: Cc1ccc2c(c1)c1c(n2C(C)C(O)c2ccncc2)CCN(C)C1 (single isomer, unassigned) [127a]

Percentage inhibition of ligand binding, Adrenergic α2A [1, 5]: 21% | Percentage inhibition of ligand binding, Adrenergic α2B ([2]; 0.03 μM compound, 0.03 µM): 69%
Compound: Cc1cnc2c(c1)c1c(n2CC(O)c2ccc(F)cc2)CCN(C)C1 (single isomer, unassigned) [136b]

Percentage inhibition of ligand binding, Adrenergic α2A [1, 5]: −11% | Percentage inhibition of ligand binding, Adrenergic α2B ([2]; 0.03 μM compound, 0.03 µM): 11%
Compound: Cc1cnc2c(c1)c1c(n2CC(C)(O)c2ccc(C)nc2)CCN2CCCC12 (single isomer, unassigned) [148d]

Percentage inhibition of ligand binding, Adrenergic α2A [1, 5]: 96% | Percentage inhibition of ligand binding, Adrenergic α2B ([2]; 0.03 μM compound, 0.03 µM): 94%
Compound: C/C(=C\n1c2c(c3cc(C)ccc31)C1CCCCN1CC2)c1ccc(F)cc1 (single isomer, unassigned) [199a]

Percentage inhibition of ligand binding, Adrenergic α2A [1, 5]: 61% | Percentage inhibition of ligand binding, Adrenergic α2B ([2]; 0.03 μM compound, 0.03 µM): 27%
Compound: C/C(=C\n1c2c(c3cc(C)ccc31)C1CCCCN1CC2)c1ccc(F)cc1 (single isomer, unassigned) [199b]

Percentage inhibition of ligand binding, Adrenergic α2A [1, 6]: 37% | Percentage inhibition of ligand binding, Adrenergic α1B [3]: 13%
Compound: CN1CCc2c(n(CC(O)c3ccc(F)c(F)c3)c3ccc(Cl)cc23)CC1 (single isomer, unassigned) [339a]

inhibition at 0.1 µM ([1]; 0.1 μM compound, [3H]MK-912, read-out: Percentage inhibition of ligand binding, Adrenergic α2A): 85% | inhibition at 0.1 µM ([3]; 0.1 μM compound, read-out: Percentage inhibition of ligand binding, Adrenergic α1B): 89%
Compound: C/C(=C\n1c2c(c3cc(C)ccc31)C1CCCN1CC2)c1ccc(C)nc1 (stereo not shown) [193a, 10-methyl-7-(2-(6-methylpyridin-3-yl)prop-1-enyl)-2,3,5,6,7,11c-hexahydro-1H-indolizino[7,8-b]indole]

Second part, the compound before the results:

Compound: 2-(4-fluoro-phenyl)-1-(9-methyl-1,2,3,4,5,10c-hexahydro-3a,6-diaza-cyclopenta[c]fluoren-6-yl)-propan-2-ol [II-121b]
Ki ([1]; [3H]MK-912, Sf9, repeat assays each datapoint shown): 9.18 nM | Percentage inhibition of ligand binding, Adrenergic α2A (0.03 μM) ([1]; compound at 0.03 μM, [3H]MK-912, repeat datapoints each shown): 54% | Percentage inhibition of ligand binding, Adrenergic α2A (0.1 μM) ([1]; compound at 0.1 μM, [3H]MK-912, repeat datapoints each shown, 0.1 µM): 80% and 85% | Ki ([2]; CHO-K1, repeat assays each datapoint shown): 0.22 nM | Percentage inhibition of ligand binding, Adrenergic α2B (0.03 μM) ([2]; compound at 0.03 μM, 0.03 µM): 100% and 103%

Compound: Cc1ccc2c(c1)c1c(n2CC(N=[N+]=[N-])c2ccncc2)CCN(C)C1 (racemic) [V-1a, 5-(2-azido-2-(pyridin-4-yl)ethyl)-2,3,4,5-tetrahydro-2,8-dimethyl-1H-pyrido[4,3-b]indole]
inhibition at 0.1 µM [1, 4]: 36% | inhibition at 0.03 µM [2]: 88%

Compound: Cc1ccc2c(c1)c1c(n2CC(OC(=O)C(N)C(C)C)c2ccncc2)CCN(C)C1 (single isomer, unassigned) [25a]
Percentage inhibition of ligand binding, Adrenergic α1B (0.1 μM) [3]: 4% | Percentage inhibition of ligand binding, Adrenergic α2B (0.03 μM) ([2]; compound at 0.03 μM, 0.03 µM): 54%

Compound: Cc1ccc2c(c1)c1c(n2CC(OC(=O)C(N)C(C)C)c2ccncc2)CCN(C)C1 (single isomer, unassigned) [25b]
Percentage inhibition of ligand binding, Adrenergic α1B (0.1 μM) [3]: 12% | Percentage inhibition of ligand binding, Adrenergic α2B (0.03 μM) ([2]; compound at 0.03 μM, 0.03 µM): 75%

Compound: Cc1ccc2c(c1)c1c(n2CC(N)c2ccncc2)CCN2CCCC12 (single isomer, unassigned) [II-4a, 2-(9-methyl-1,2,3,4,5,10c-hexahydro-3a,6-diaza-cyclopenta[c]fluoren-6-yl)-1-pyridin-4-yl-ethylamine]
Percentage inhibition of ligand binding, Adrenergic α2B ([2]; compound at 0.03 μM, 0.03 µM): 79%

Compound: Cc1ccc2c(c1)c1c(n2CC(N)c2ccncc2)CCN2CCCC12 (single isomer, unassigned) [II-4b, 2-(9-methyl-1,2,3,4,5,10c-hexahydro-3a,6-diaza-cyclopenta[c]fluoren-6-yl)-1-pyridin-4-yl-ethylamine]
Percentage inhibition of ligand binding, Adrenergic α2B ([2]; compound at 0.03 μM, 0.03 µM): 100%

Compound: OCCN1CCc2c(c3cc(Cl)ccc3n2CC(O)c2cccnc2)C1 (single isomer, unassigned) [II-94a]
Percentage inhibition of ligand binding, Adrenergic α2A [1, 6]: 0% | Percentage inhibition of ligand binding, Adrenergic α2B ([2]; compound at 0.03 μM, 0.03 µM): 8%

Compound: Cc1cnc2c(c1)c1c(n2CC(O)c2ccc(C)nc2)CCN(C)C1 (single isomer, unassigned) [II-100a]
Percentage inhibition of ligand binding, Adrenergic α2A [1, 6]: 7% | Percentage inhibition of ligand binding, Adrenergic α2B ([2]; compound at 0.03 μM, 0.03 µM): 12%

Compound: Cc1cnc2c(c1)c1c(n2CCc2ccc(C)nc2)CCN2CCCCC12 (single isomer, unassigned) [IV-8a]
Percentage inhibition of ligand binding, Adrenergic α2B (0.03 μM) ([2]; compound at 0.03 μM, 0.03 µM): 4%

Compound: Cc1ccc2c(c1)c1c(n2C(C)C(O)c2ccncc2)CCN(C)C1 (stereo not shown) [II-98a]
Percentage inhibition of ligand binding, Adrenergic α2A ([1]; compound at 0.1 μM, [3H]MK-912): 12% | Percentage inhibition of ligand binding, Adrenergic α1B [3]: 33%

Compound: Cc1ccc2c(c1)c1c(n2C(C)C(O)c2ccncc2)CCN(C)C1 (stereo not shown) [II-98b]
Percentage inhibition of ligand binding, Adrenergic α2B ([2]; compound at 0.03 μM): 5%

Compound: CN1CCc2c(c3cc(Cl)ccc3n2CC(O)c2ccncc2)C1 (stereo not shown) [compound 4]
inhibition at 0.03 µM [2]: 106%

Compound: Cc1ccc2c(c1)c1c(n2CC(O)c2ccncc2)CN(C)CC1 (stereo not shown) [compound 8]
inhibition at 0.03 µM [2]: 61%

Compound: Cc1ccc2c(c1)c1c(n2CC(O)c2ccc(F)cc2)CCN(C)C1 (stereo not shown) [compound 30]
inhibition at 0.1 µM [1, 4]: 63% | inhibition at 0.1 µM ([3]; read-out: Percentage inhibition of ligand binding, Adrenergic α1B (0.1 μM), compound at 0.1 μM, repeat datapoints each shown): 86%

Compound: Cc1ccc2c(c1)c1c(n2CC(O)c2ccncc2)C(C)N2CCC1C2 (stereo not shown) [compound 38]
inhibition at 0.1 µM [1, 4]: -1% | inhibition at 0.03 µM [2]: 56%

Compound: CN1CCc2c(n(CC(O)c3ccncc3)c3ccc(Cl)cc23)C1 (stereo not shown) [compound 41]
inhibition at 0.1 µM [1, 4]: 24% | inhibition at 0.03 µM [2]: 45%
